# According to patent publication USRE47689E1, “Compounds for treating spinal muscular atrophy” (PTC Therapeutics, Inc., priority 2011, dated 2019):
# Where two headings read alike, the source gives them in different places.
# Columns and labels:
# Smn protein = Smn protein assay in cultured cells (SMN HTRF); assay type: cell-based, human; details: 48 hours; for maximum fold (Fold) increase of Smn protein: SMA patient fibroblast cells, 7-point concentration data, fold increase relative to vehicle control (SMN HTRF); for EC1.5x (concentration giving 1.5-fold Smn protein increase): SMA Type 1 patient fibroblast cells (GM03813), 7-point concentration curve, SMN HTRF, concentration producing 1.5 times Smn protein vs DMSO vehicle control, read-out: EC1.5x for Smn protein expression
# Procedure, shortened: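 Lysates in RIPA with protease inhibitors are incubated overnight at room temperature with HTRF anti-SMN antibodies. EC1.5x is derived from fold increase in ΔF over vehicle.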
# [1] = system: SMN2 minigene (full length SMN2 minigene mRNA containing SMN2 exon 7); test: SMN2 minigene mRNA splicing RT-qPCR assay in cultured cells; assay type: cell-based, human; details: Homo sapiens, HEK293-H, read-out: EC1.5x for production of full length SMN2 mRNA
# Procedure, shortened: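 HEK293H cells stably carrying the SMN2-A minigene treated 24 h at 37° C with compound (DMSO, 200× stock), then lysed. Multiplex RT-qPCR (SMN primers 0.4 μM final; 40 cycles) measures full-length exon 7-containing minigene mRNA, normalized to GAPDH and to vehicle; EC1.5x derived and binned by stars.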
# [2] = HEK293H cells stably transfected with SMN2-A minigene, 24 hours, 7-point concentration curve, 1.5-fold relative to vehicle-treated cells
Compound,melting point,maximum fold (Fold) increase of Smn protein (Smn protein),EC (1.5-fold) ([1]; 24 h),EC1.5x (concentration giving 1.5-fold Smn protein increase) (Smn protein),"EC (1.5-fold) [1, 2]"
"Cc1cc(F)c2nc(-c3cc4ccc(N5CC6CCC(C5)N6C)cc4oc3=O)cn2c1 [Compound 613, 3-(8-fluoro-6-methylimidazo[1,2-a]pyridin-2-yl)-7-(8-methyl-3,8-diazabicyclo[3.2.1]oct-3-yl)-2H-chromen-2-one]",267 to 274 °C,** (fold increase between >1.2 and ≤1.35),0.3 to 1 µM,–,–
"Cc1cn2cc(-c3cc4ccc(OCCNCCO)cc4oc3=O)nc2c(C)n1 [Compound 959, 3-(6,8-dimethylimidazo[1,2-a]pyrazin-2-yl)-7-{2-[(2-hydroxyethyl)amino]ethoxy}-2H-chromen-2-one]",175 to 177 °C,*** (fold increase between >1.35 and ≤1.5),–,300 to 1000 nM,< 0.1 µM
"Cc1ccn2cc(-c3cc4ccc(N5CCN6CCC5CC6)cc4oc3=O)nc2c1 [Compound 521, 7-(1,4-diazabicyclo[3.2.2]non-4-yl)-3-(7-methylimidazo[1,2-a]pyridin-2-yl)-2H-chromen-2-one]",216 to 223 °C,** (fold increase between >1.2 and ≤1.35),0.3 to 1 µM,–,–
"C[C@H]1CN(c2ccc3cc(-c4cc5ccccc5s4)c(=O)oc3c2)CCN1 [Compound 410, 3-(1-benzothiophen-2-yl)-7-[(3S)-3-methylpiperazin-1-yl]-2H-chromen-2-one]",260 to 262 °C,* (maximum fold increase of ≤1.2),–,–,< 0.1 µM
"CSc1nccn2cc(-c3cc4ccc(N5C[C@@H](C)N[C@@H](C)C5)cc4oc3=O)nc12 [Compound 400, 7-[(3R,5S)-3,5-dimethylpiperazin-1-yl]-3-[8-(methylsulfanyl)imidazo[1,2-a]pyrazin-2-yl]-2H-chromen-2-one]",283 to 285 °C,* (maximum fold increase of ≤1.2),–,–,3 to 30 µM

# Continued, in another order:
melting point,Compound,maximum fold (Fold) increase of Smn protein (Smn protein),EC (1.5-fold) ([1]; 24 h),EC1.5x (concentration giving 1.5-fold Smn protein increase) (Smn protein),"EC (1.5-fold) [1, 2]"
246 to 254 °C,"Cc1cc(F)c2nc(-c3cc4ccc(N5CCN[C@H](C)C5)cc4oc3=O)cn2c1 [Compound 420, 3-(8-fluoro-6-methylimidazo[1,2-a]pyridin-2-yl)-7-[(3R)-3-methylpiperazin-1-yl]-2H-chromen-2-one]",**** (fold increase between >1.5 and ≤1.65),–,< 300 nM,< 0.1 µM
185 to 188 °C,"Cc1cn2cc(-c3cc4ccc(OCCN[C@H](C)CO)cc4oc3=O)nc2c(C)n1 [Compound 946, 3-(6,8-dimethylimidazo[1,2-a]pyrazin-2-yl)-7-(2-{[(2R)-1-hydroxypropan-2-yl]amino}ethoxy)-2H-chromen-2-one]",**** (fold increase between >1.5 and ≤1.65),–,< 300 nM,< 0.1 µM
255 to 263 °C,"Cc1cn2cc(-c3cc4ccc(N5C[C@H]6CCN(C)[C@H]6C5)cc4oc3=O)nc2c(C)n1 [Compound 704, 3-(6,8-dimethylimidazo[1,2-a]pyrazin-2-yl)-7-[(3aR,6aR)-1-methylhexahydropyrrolo[3,4-b]pyrrol-5(1H)-yl]-2H-chromen-2-one]",**** (fold increase between >1.5 and ≤1.65),–,< 300 nM,< 0.1 µM
195 to 202 °C,"Cc1cn2cc(-c3cc4ccc(O[C@@H]5CCN(C)C5)cc4oc3=O)nc2c(C)n1 [Compound 889, 3-(6,8-dimethylimidazo[1,2-a]pyrazin-2-yl)-7-{[(3R)-1-methylpyrrolidin-3-yl]oxy}-2H-chromen-2-one]",***** (fold increase >1.65),–,< 300 nM,< 0.1 µM
